One block for each compound: values may come before it.
What was measured:
[1] = tested on: ATXN3 Pre-mRNA (exon 4 skipping); experiment: RT-qPCR Assay to Quantify Exon 4 Skipping in ATXN3 Pre-mRNA in Cells; assay type: cell-based; conditions: cells incubated with compound 24 h, normalised to GAPDH, 7-point concentration curve
Experimental: (§1) Test compounds were serially diluted 3.16-fold in 100% DMSO to generate a 7-point concentration curve. Aliquots of 0.5 μL of diluted compounds were transferred to a 96-well flat bottom plate by a liquid handler. An aliquot of 0.5 μL DMSO was also transferred to separate wells and used as controls. Duplicate samples were set up for each compound concentration and for the DMSO control.
Cells were thawed and incubated in cell culture media (DMEM, 10% FBS, and 1% antibiotic cocktail) for 72 h. Cells were trypsinized, counted, and re-suspended to a concentration of 100,000 cells/mL in cell culture media. A 100 μL aliquot of the cell suspensions were plated at 10,000 cells per well in the compound containing 96 well microtiter plate and incubated for in a cell culture incubator (37° C., 5% CO2, 100% relative humidity).
After 24 h, media was aspirated from the cells and 50 μL of the RCL2 lysis buffer (10 mM Tris-HCL pH 7.4, 150 mM NaCl, 0.33% IGEPAL® CA-630) was added to each well and incubated at room temperature for 1 min. Chilled nuclease free water (50 μL per well) was added and the plates were immediately transferred on ice. After 1 min on ice, plates were frozen at −80° C. overnight.
Preparation of RT-qPCR Reaction Mixture:
An aliquot of 2 μL/well of the cell lysates was transferred using the liquid handler to the Armadillo 384-Well PCR plate containing 8 μL/well of the RT-qPCR reaction mixture that was prepared as detailed above. The plates were then sealed with MicroAmp™ Optical Adhesive Film followed by spinning down for 1 min and placed in the CFX384 thermocycler (BioRad).
The RT-qPCR was carried out at the following temperatures for the indicated time: • Step 1: 48° C. (30 min) • Step 2: 95° C. (10 min) • Step 3: 95° C. (15 sec) • Step 4: 60° C. (1 min); then, repeated Steps 3 and 4 for a total of 40 cycles.
The percent exon 4 skipping was calculated for each dose of compound treatment using Equations 1 and 2.
Data were fit to a dose response curve and the IC50 was interpolated using XLfit® statistical and curve fitting package.
An IC50 value between >2.0 μM and ≤3.0 μM is indicated by one star (*). […] IC50 value between >0.5 μM and ≤1.0 μM is indicated by four stars (****). An IC50 value ≤0.5 μM is indicated by five stars (*****).

[2] = tested on: Endogenous Total ATXN3 (tATXN3) Protein; experiment: Endogenous Total ATXN3 (tATXN3) Protein Assay (MSD immunoassay of cell lysates); assay type: cell-based; conditions: cells incubated with compound 48 h; 7-point concentration curve; MSD plate readout
Experimental: Meso Scale Discovery (MSD) 96-well or 384-well plates were coated overnight at 4° C. with Ataxin 3 mouse monoclonal antibody (Invitrogen, MA3-082) at a concentration of […] in PBS (30 μL per well). Plates were then washed three times with 300 μL wash buffer (0.05% TWEEN®-20, polyethylene glycol sorbitan monolaurate, in PBS) and blocked (Meso Scale Diagnostics, R93BA-1; 5% BSA in PBS) for 2 h at room temperature with rotational shaking and then washed three times with wash buffer.
as §1
Cells were thawed and incubated in cell culture media (DMEM, 10% FBS, and 1% antibiotic cocktail) for 72 h. Cells were trypsinized, counted, and re-suspended to a concentration of 100,000 cells/mL in cell culture media. A 100 μL aliquot of the cell suspensions were plated at 10,000 cells per well in the compound containing 96 well microtiter plate and incubated for in a cell culture incubator (37° C., 5% CO2, 100% relative humidity). After 48 h, the medium was removed and 50-100 μL of lysis buffer (Meso Scale Diagnostics, R60TX-2) containing 1× halt protease inhibitor cocktail of (Thermo Scientific, Halt™ Protease Inhibitor Cocktail, 78430) per well was added to cells to provide a “cell lysate”. The plate was placed on a shaker at 4° C. for 30 minutes, then stored at −80° C.
Cell lysate samples (25 μL) were transferred to the antibody-coated MSD plate and incubated overnight at 4° C. After removal of the lysates, the plate was washed three times with wash buffer, and 25 μL of Ataxin 3 recombinant rabbit monoclonal antibody (Invitrogen, #702788) secondary antibody (diluted to 0.25 μg/mL in 0.05% TWEEN®-20 in blocking buffer) was added to each well and incubated with shaking for 1-2 h at room temperature. Following incubation with the secondary antibody, the wells were rinsed with wash buffer and then 25 μL of Anti Rabbit Antibody Goat SULFO-TAG Labeled (Meso Scale Diagnostics, R32AB-1) detecting antibody (diluted to 0.25 μg/mL in 0.05% TWEEN®-20 in blocking buffer) was added to each well and incubated with shaking for 1 h at room temperature. After rinsing three times with wash buffer, 150 μL of Read Buffer T with surfactant (tris-based buffer containing tripropylamine, Meso Scale Diagnostics, R92TC-1) were added to each empty well, and the plate was imaged on a SI 6000 imager (MSD) according to manufacturers' instructions provided for 96- or 384-well plates.

IC50 (average, total ATXN3 protein) [2]: inactive
Structure (SMILES): Clc1nc(NCc2cccs2)c2scc(Br)c2n1 [Cpd 80, 7-bromo-2-chloro-N-[(thiophen-2-yl)methyl]thieno[3,2-d]pyrimidin-4-amine]
IC50 (exon 4 skipping in ATXN3 pre-mRNA) [1]: inactive

IC50 [2]: 1000 to 1500 nM
Structure (SMILES): Cc1c(C[C@H](C)CN)sc2c(NCc3ccco3)nc(Cl)nc12 [Cpd 70, 6-[(2S)-3-amino-2-methylpropyl]-2-chloro-N-[(furan-2-yl)methyl]-7-methylthieno[3,2-d]pyrimidin-4-amine]
IC50 [1]: 500 to 1000 nM

Structure (SMILES): Cc1c(C[C@H](C)N)sc2c(NCc3ccno3)nc(Cl)nc12 [Cpd 39, 6-[(2S)-2-aminopropyl]-2-chloro-7-methyl-N-[(1,2-oxazol-5-yl)methyl]thieno[3,2-d]pyrimidin-4-amine]
IC50 [1]: ≤ 500 nM | IC50 [2]: ≤ 500 nM

Structure (SMILES): C[C@H](N)Cc1sc2c(NCc3cccs3)nc(Cl)nc2c1C1CC1 [Cpd 86, 6-[(2S)-2-aminopropyl]-2-chloro-7-cyclopropyl-N-[(thiophen-2-yl)methyl]thieno[3,2-d]pyrimidin-4-amine]
IC50 [1]: ≤ 500 nM | IC50 [2]: ≤ 500 nM

IC50 (average, total ATXN3 protein) [2]: inactive
Structure (SMILES): Cc1c(C[C@H](C)CO)sc2c(NCc3ccco3)nc(Cl)nc12 [Cpd 66, (2S)-3-(2-chloro-4-{[(furan-2-yl)methyl]amino}-7-methylthieno[3,2-d]pyrimidin-6-yl)-2-methylpropan-1-ol]
IC50 (exon 4 skipping in ATXN3 pre-mRNA) [1]: inactive

Structure (SMILES): Cc1c(C[C@H](C)N)sc2c(NCc3nc(F)cs3)nc(Cl)nc12 [Cpd 92, 6-[(2S)-2-aminopropyl]-2-chloro-N-[(4-fluoro-1,3-thiazol-2-yl)methyl]-7-methylthieno[3,2-d]pyrimidin-4-amine]
IC50 [1]: ≤ 500 nM | IC50 [2]: ≤ 500 nM

IC50 (average, total ATXN3 protein) [2]: inactive
Structure (SMILES): Cc1c([C@@H](C)N)sc2c(NCc3ccco3)nc(Cl)nc12 [Cpd 94, 6-[(1R)-1-aminoethyl]-2-chloro-N-[(furan-2-yl)methyl]-7-methylthieno[3,2-d]pyrimidin-4-amine]
IC50 (exon 4 skipping in ATXN3 pre-mRNA) [1]: inactive

Structure (SMILES): C[C@H](N)Cc1sc2c(NCc3cccs3)nc(Cl)nc2c1Br [Cpd 82, 6-[(2S)-2-aminopropyl]-7-bromo-2-chloro-N-[(thiophen-2-yl)methyl]thieno[3,2-d]pyrimidin-4-amine]
IC50 [1]: ≤ 500 nM | IC50 [2]: ≤ 500 nM

IC50 (average, total ATXN3 protein) [2]: inactive
Structure (SMILES): CC(C)(C)[C@H](N)Cc1cc2nc(Cl)nc(NCc3ccco3)c2s1 [Cpd 7, 6-[(2R)-2-amino-3,3-dimethylbutyl]-2-chloro-N-[(furan-2-yl)methyl]thieno[3,2-d]pyrimidin-4-amine]
IC50 (exon 4 skipping in ATXN3 pre-mRNA) [1]: inactive

Structure (SMILES): Cc1ccc(CNc2nc(Cl)nc3c(C)c(C[C@H](C)N)sc23)o1 [Cpd 24, 6-[(2S)-2-aminopropyl]-2-chloro-7-methyl-N-[(5-methylfuran-2-yl)methyl]thieno[3,2-d]pyrimidin-4-amine]
IC50 [1]: 1500 to 2000 nM | IC50 [2]: > 2000 nM

Structure (SMILES): Cc1c(C[C@H](C)N)sc2c(NCc3sccc3F)nc(Cl)nc12 [Cpd 90, 6-[(2S)-2-aminopropyl]-2-chloro-N-[(3-fluorothiophen-2-yl)methyl]-7-methylthieno[3,2-d]pyrimidin-4-amine]
IC50 [1]: ≤ 500 nM | IC50 [2]: ≤ 500 nM

IC50 [2]: ≤ 500 nM
Structure (SMILES): Cc1c(C[C@@H](N)CCF)sc2c(NCc3ccco3)nc(Cl)nc12 [Cpd 51, 6-[(2S)-2-amino-4-fluorobutyl]-2-chloro-N-[(furan-2-yl)methyl]-7-methylthieno[3,2-d]pyrimidin-4-amine]
IC50 [1]: ≤ 500 nM

Structure (SMILES): Cc1c(C[C@H](C)N)sc2c(NCc3ccc(F)s3)nc(Cl)nc12 [Cpd 33, 6-[(2S)-2-aminopropyl]-2-chloro-N-[(5-fluorothiophen-2-yl)methyl]-7-methylthieno[3,2-d]pyrimidin-4-amine]
IC50 [1]: ≤ 500 nM | IC50 [2]: ≤ 500 nM

Structure (SMILES): Cc1c(C[C@H](C)N)sc2c(NCc3ccncc3F)nc(Cl)nc12 [Cpd 35, 6-[(2S)-2-aminopropyl]-2-chloro-N-[(3-fluoropyridin-4-yl)methyl]-7-methylthieno[3,2-d]pyrimidin-4-amine]
IC50 [1]: ≤ 500 nM | IC50 [2]: ≤ 500 nM

Structure (SMILES): Cc1cnc(CNc2nc(Cl)nc3c(C)c(C[C@H](C)N)sc23)s1 [Cpd 31, 6-[(2S)-2-aminopropyl]-2-chloro-7-methyl-N-[(5-methyl-1,3-thiazol-2-yl)methyl]thieno[3,2-d]pyrimidin-4-amine]
IC50 [1]: 2000 to 3000 nM | IC50 [2]: > 2000 nM

Structure (SMILES): Cc1c(C[C@H](C)N)sc2c(NCc3cnco3)nc(Cl)nc12 [Cpd 75, 6-[(2S)-2-aminopropyl]-2-chloro-7-methyl-N-[(1,3-oxazol-5-yl)methyl]thieno[3,2-d]pyrimidin-4-amine]
IC50 [1]: 500 to 1000 nM | IC50 [2]: 1000 to 1500 nM

IC50 [2]: ≤ 500 nM
Structure (SMILES): Cc1c(C[C@@H](N)CO)sc2c(NCc3cccs3)nc(Cl)nc12 [Cpd 56, (2R)-2-amino-3-(2-chloro-7-methyl-4-{[(thiophen-2-yl)methyl]amino}thieno[3,2-d]pyrimidin-6-yl)propan-1-ol]
IC50 [1]: ≤ 500 nM

Structure (SMILES): Cc1c(C[C@H](C)N)sc2c(NCc3ncc[nH]3)nc(Cl)nc12 [Cpd 73, 6-[(2S)-2-aminopropyl]-2-chloro-N-[(1H-imidazol-2-yl)methyl]-7-methylthieno[3,2-d]pyrimidin-4-amine]
IC50 (exon 4 skipping in ATXN3 pre-mRNA) [1]: inactive | IC50 (average, total ATXN3 protein) [2]: inactive

Structure (SMILES): Cc1nc(NCc2ccco2)c2sc(C[C@H](C)N)c(C)c2n1 [Cpd 15, 6-[(2S)-2-aminopropyl]-N-[(furan-2-yl)methyl]-2,7-dimethylthieno[3,2-d]pyrimidin-4-amine]
IC50 [1]: ≤ 500 nM | IC50 [2]: 500 to 1000 nM

IC50 [2]: ≤ 500 nM
Structure (SMILES): Cc1c(C[C@@H](N)CCO)sc2c(NCc3ccco3)nc(Cl)nc12 [Cpd 97, (3S)-3-amino-4-(2-chloro-4-{[(furan-2-yl)methyl]amino}-7-methylthieno[3,2-d]pyrimidin-6-yl)butan-1-ol]
IC50 [1]: ≤ 500 nM

Structure (SMILES): Cc1c(C[C@H](C)N)sc2c(NCc3c(F)cncc3F)nc(Cl)nc12 [Cpd 64, 6-[(2S)-2-aminopropyl]-2-chloro-N-[(3,5-difluoropyridin-4-yl)methyl]-7-methylthieno[3,2-d]pyrimidin-4-amine]
IC50 [1]: 500 to 1000 nM | IC50 [2]: 1000 to 1500 nM

Structure (SMILES): Cc1ccoc1CNc1nc(Cl)nc2c(C)c(C[C@H](C)N)sc12 [Cpd 30, 6-[(2S)-2-aminopropyl]-2-chloro-7-methyl-N-[(3-methylfuran-2-yl)methyl]thieno[3,2-d]pyrimidin-4-amine]
IC50 [1]: 1000 to 1500 nM | IC50 [2]: 1500 to 2000 nM

IC50 (average, total ATXN3 protein) [2]: inactive
Structure (SMILES): Cc1c(CCCN)sc2c(NCc3ccco3)nc(Cl)nc12 [Cpd 67, 6-(3-aminopropyl)-2-chloro-N-[(furan-2-yl)methyl]-7-methylthieno[3,2-d]pyrimidin-4-amine]
IC50 (exon 4 skipping in ATXN3 pre-mRNA) [1]: inactive

Reference: patent US20240043444A1, “METHODS FOR TREATING SPINOCEREBELLAR ATAXIA TYPE 3” (PTC Therapeutics, Inc., priority 2021, published 2024)
